Measurements published in patent US11220479B2, “Glucosylceramide synthase inhibitors and therapeutic methods using the same” (THE REGENTS OF THE UNIVERSITY OF MICHIGAN, priority 2019, dated 2022).
Like-named read-outs stand apart in the source and are kept apart here.

Legend:
[1] = IP PK: areas under the drug concentration curve after single IP dose in mice; assay type: in vivo; settings: mouse; mice, single IP dose 10 mg/kg, plasma
[2] = molecular target: T1, glucosylceramide synthase (GCS) (Canis lupus familiaris, UniProt A0A8I3MXG6); assay: GCS inhibition in MDCKII cells (inhibition of GlcCer production in whole wild-type MDCKII cells); assay type: cell-based; settings: read-out: MDCK IC50
T1 construct: endogenous in cells; host or cells: parental (wild-type) MDCKII cells
T1 sequence (A0A8I3MXG6 1-394): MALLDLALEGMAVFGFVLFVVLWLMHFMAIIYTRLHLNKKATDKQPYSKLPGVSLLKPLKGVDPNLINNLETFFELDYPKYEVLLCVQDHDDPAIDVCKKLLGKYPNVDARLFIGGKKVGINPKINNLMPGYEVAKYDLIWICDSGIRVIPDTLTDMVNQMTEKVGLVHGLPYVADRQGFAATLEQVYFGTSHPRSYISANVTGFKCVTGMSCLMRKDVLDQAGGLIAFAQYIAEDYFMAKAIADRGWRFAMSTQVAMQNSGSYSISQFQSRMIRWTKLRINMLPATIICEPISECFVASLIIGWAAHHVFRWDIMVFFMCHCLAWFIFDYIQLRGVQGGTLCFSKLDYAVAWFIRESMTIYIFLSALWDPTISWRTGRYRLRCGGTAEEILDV

[3] = Half-life when incubated with mouse liver microsomes (MLM); assay type: in vitro ADME; settings: read-out: MLM T½
Experimental: ^a Inhibition of GlcCer production in whole wild-type MDCKII cells. ^bHalf-life when incubated with mouse liver microsomes. ^cAreas under the drug concentration curve after single IP dose in mice (10 mg/kg). ^dReduction in brain levels of glucosylceramide in CBE mice after 14 days of qd dosing with test drug administered IP. NC=no change.

[4] = inhibition of GlcCer production in whole wild-type MDCKII cells, 24 hours
[5] = half-life when incubated with mouse liver microsomes
[6] = mouse, liver microsomes, Table 2, Cl vs H comparison

Row | SMILES | IC50 [2, 4] [nM] | half-life [3, 5] [min] | half-life [3, 6] [min] | IC50 ([2]; Table 2, Cl vs H comparison) [nM] | also measured
1 | CC(C)(C)Oc1ccc([C@@H](O)[C@@H](CN2CCCC2)NC(=O)CC2Cc3ccccc3C2)cc1 [Comp. Ex. 2, reference compound] | – | – | 120 | 2.5 | –
2 | O=C(CC1Cc2ccccc2C1)N[C@H](CN1CCCC1)[C@H](O)c1ccc(OC(F)F)cc1 [Comp. Ex. 9, reference compound] | – | – | 38 | – | –
3 | O=C(CC1Cc2ccccc2C1)N[C@H](CN1CCCC1)[C@H](O)c1ccc(OC(F)(F)F)cc1 [Comp. Ex. 3, reference compound] | – | – | 251 | – | –
4 | O=C(CC1Cc2ccccc2C1)N[C@H](CN1CCCC1)[C@H](O)c1ccccc1 [Comp Ex. 1, reference compound] | – | – | 15 | 6.5 | –
5 | O=C(CC1Cc2ccccc2C1)N[C@H](CN1CCCC1)[C@H](O)c1ccc(OC2CC2)cc1 [Comp. Ex. 4, reference compound] | – | – | 3.8 | 1.7 | –
6 | COc1ccccc1[C@@H](O)[C@@H](CN1CCCC1)NC(=O)CC1Cc2ccccc2C1 [Comp. Ex. 19, reference compound] | – | – | – | 4.8 | –
7 | CC1(Oc2ccc([C@@H](O)[C@@H](CN3CCCC3)NC(=O)CC3Cc4ccccc4C3)cc2)COC1 [Comp. Ex. 5, reference compound] | – | – | 24 | 7.9 | –

More lines, main results first:

Row | IC50 [2, 4] [nM] | half-life [3, 5] [min] | half-life [3, 6] [min] | IC50 ([2]; Table 2, Cl vs H comparison) [nM] | SMILES | also measured
8 | 9.2 | – | – | – | CC1(OC(=O)N[C@H](CN2CCCC2)[C@H](O)c2cccc(Cl)c2)Cc2ccccc2C1 [Example 14, 2-methyl-2,3-dihydro-1H-inden-2-yl ((1R,2R)-1-(3-chlorophenyl)-1-hydroxy-3-(pyrrolidin-1-yl)propan-2-yl)carbamate] | AUC [1]: 324 ng·h/mL
9 | 6.8 | 54 | – | – | O=C(CC1Cc2ccccc2C1)N[C@H](CN1CCC1)[C@H](O)c1cccc(Cl)c1 [Example 16, N-((1R,2R)-3-(azetidin-1-yl)-1-(3-chlorophenyl)-1-hydroxypropan-2-yl)-2-(2,3-dihydro-1H-inden-2-yl)acetamide] | –
10 | 141 | 4.6 | – | – | O=C(CC1Cc2ccccc2C1)N[C@H](CN1CCCC1)[C@H](O)c1cccc(Cl)c1F [Example 22, N-((1R,2R)-1-(3-chloro-2-fluorophenyl)-1-hydroxy-3-(pyrrolidin-1-yl)propan-2-yl)-2-(2,3-dihydro-1H-inden-2-yl)acetamide] | –
11 | 0.43 | 7.1 | – | – | COc1ccc(Cl)cc1[C@@H](O)[C@@H](CN1CCCC1)NC(=O)CC1Cc2ccccc2C1 [Example 19, N-((1R,2R)-1-(5-chloro-2-methoxyphenyl)-1-hydroxy-3-(pyrrolidin-1-yl)propan-2-yl)-2-(2,3-dihydro-1H-inden-2-yl)acetamide] | –
12 | 2.1 | 6.5 | – | – | O=C(CC1Cc2ccccc2C1)N[C@H](CN1CCCC1)[C@H](O)c1cc(Cl)cc(OC2CC2)c1 [Example 20, N-((1R,2R)-1-(3-chloro-5-cyclopropoxyphenyl)-1-hydroxy-3-(pyrrolidin-1-yl)propan-2-yl)-2-(2,3-dihydro-1H-inden-2-yl)acetamide] | –
13 | 0.54 | 91 | – | – | O=C(CC1Cc2ccccc2C1)N[C@H](CN1CCCC1)[C@H](O)c1ccc(C2CC2)c(Cl)c1 [Example 8, N-((1R,2R)-1-(3-chloro-4-cyclopropylphenyl)-1-hydroxy-3-(pyrrolidin-1-yl)propan-2-yl)-2-(2,3-dihydro-1H-inden-2-yl)acetamide] | –
14 | 24.1 | > 1000 | – | – | CC(C)(C)c1ccc([C@@H](O)[C@@H](CN2CCCC2)NC(=O)CC2Cc3ccccc3C2)cc1Cl [Example 21, N-((1R,2R)-1-(4-(tert-butyl)-3-chlorophenyl)-1-hydroxy-3-(pyrrolidin-1-yl)propan-2-yl)-2-(2,3-dihydro-1H-inden-2-yl)acetamide] | –
15 | 81.5 | – | – | – | COc1c(Cl)cccc1[C@@H](O)[C@@H](CN1CCCC1)NC(=O)CC1Cc2ccccc2C1 [Example 18, N-((1R,2R)-1-(3-chloro-2-methoxyphenyl)-1-hydroxy-3-(pyrrolidin-1-yl)propan-2-yl)-2-(2,3-dihydro-1H-inden-2-yl)acetamide] | –
